Data: patent publication EP0647136B1, “USE OF CONDENSED BIS-(3,4-DIHYDRO-PYRIDINYL)METHANE FOR TREATING CROHN'S DISEASE, COLITIS ULCEROSA, CHRONIC INFLAMATORY PROCESSES AND AS AN ANTIPROLIFERATIVE” (BOEHRINGER INGELHEIM INTERNATIONAL GmbH, priority 1992, dated 1994)

Tested on: RBL-2H3-Zellen
Experiment: Antigen-induced (DNP-BSA) activation of sensitised RBL-2H3 cells, fluorometric cytoplasmic Ca2+ measurement
Type: cell-based, rat
Details: 10 µM
Description: Verwendet werden einzelne an Glasplättchen adhärente RBL-2H3-Zellen (eine den Mastzellen verwandte Tumorzellinie).
Die Kultivierung und Anhaftung der RBL-2H3-Zellen erfolgt in der HIDE und BEAVEN (1991) beschriebenen Methode. Zur Sensibilisierung der adhäsiven RBL-2H3-Zellen werden die Zellen 2 Stunden bei Raumtemperatur mit einer 1:2000 verdünnten käuflichen Gammaglobulin E-Lösung gegen einen Dinitrophenol-Rinderserumalbumin-Komplex (DNP-BSA-Antigen) inkubiert. Anschließend werden die Zellen gewaschen. Durch Zusatz von 0,1 ml DNP-BSA-Lösung (10 µg/ml) erfolgt eine massive immunologische Zellaktivierung, die durch einen cytoplasmatischen Ca^2+-overload vermittelt wird. Die fluorometrische Calciummessung im Cytoplasma einzelner adhärenter RBL-2H3-Zellen erfolgt in Analogie zu der von KUDO und OGURA (1986) für neuronale Zellen beschriebenen Methode, die auch weiter oben in dieser Beschreibung erläutert wird.

With `O=C(O)c1cc(=O)c2c(OCC(O)COc3cccc4oc(C(=O)O)cc(=O)c34)cccc2o1` [Chromoglycat] the “Hemmung der antigen-induzierten Zellaktivierung” value was “ca. 50%”.
